TGI data for ten compounds are collected here from PubChem BioAssay (NCI).

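Each compound was tested at five concentrations against cells in 96-well plates for 48 hours. At the TGI there is no net growth.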

Among the test systems are MDA-MB-435; IGROV1 ovarian; UACC-257 melanoma; SNB-19 CNS; MCF7 breast; MDA-MB-231 breast; U251 CNS; M14 melanoma; HT29 colon; HCC-2998 colon; CAKI-1 renal; OVCAR-8 ovarian; SK-MEL-5 melanoma; SK-MEL-2 melanoma.
Holding throughout (experiment): growth of human tumour cells (NCI), 48 h

For the compound `CCOc1nc2c(N3CCCC3)nc(N3CCNCC3)nc2nc1NCc1ccccc1`, the TGI in the experiment on MDA-MB-435 came out at 2.72 µM; in the experiment on IGROV1 ovarian, 2.64 µM; in the experiment on UACC-257 melanoma, 3.25 µM; in the experiment with SNB-19 CNS, 3.45 µM; with MCF7 breast it was 2.86 µM; in the experiment on MDA-MB-231 breast it was 2.84 µM. In addition, the TGI turned out to be 2.39 µM with U251 CNS; 2.98 µM in the experiment on M14 melanoma; 2.6 µM with HT29 colon; 2.62 µM in the experiment on HCC-2998 colon; 6.71 µM in the experiment on CAKI-1 renal; 4.1 µM with OVCAR-8 ovarian. In addition, the figures for the TGI in the experiment on SK-MEL-5 melanoma and with SK-MEL-2 melanoma were 2.71 µM and 3.11 µM, respectively.

For `Cc1c(-c2ccccc2)[nH]c2cn[nH]c(=O)c12`, the TGI with MDA-MB-435, with IGROV1 ovarian, in the experiment with UACC-257 melanoma, in the experiment with SNB-19 CNS, with MCF7 breast and in the experiment on MDA-MB-231 breast was over 100 µM throughout. Moreover, the TGI in the experiment with U251 CNS, with M14 melanoma, in the experiment on HT29 colon, in the experiment on HCC-2998 colon, in the experiment with CAKI-1 renal and in the experiment with OVCAR-8 ovarian was over 100 µM throughout. Also, the TGI in the experiment on SK-MEL-5 melanoma and in the experiment with SK-MEL-2 melanoma was over 100 µM each time.

As for `C#C[C@]1(O)CC[C@H]2[C@@H]3CCc4cc(O)ccc4[C@H]3CC[C@@]21C`, the TGI is over 100 µM with IGROV1 ovarian; over 100 µM with UACC-257 melanoma; over 100 µM in the experiment with SNB-19 CNS; 54.4 µM in the experiment with HT29 colon; 73.8 µM in the experiment on HCC-2998 colon; over 100 µM in the experiment with CAKI-1 renal. The TGI was over 100 µM with OVCAR-8 ovarian, 52.2 µM in the experiment with SK-MEL-5 melanoma and 82.9 µM with SK-MEL-2 melanoma.

Take `C[C@@H]1CC[C@@H]2[C@@H](C1)O[C@@H]([C@@H](C)OCc1ccccc1)SC2(C)C`: the TGI in the experiment on MDA-MB-435 turned out to be 35.8 µM; with IGROV1 ovarian, 63.3 µM; in the experiment on UACC-257 melanoma, 39.9 µM; in the experiment on SNB-19 CNS, 33.6 µM; in the experiment with MCF7 breast, 35.3 µM; in the experiment on MDA-MB-231 breast it was 38.2 µM. The TGI amounted to 32.6 µM with U251 CNS; 37.7 µM with M14 melanoma; 36.7 µM with HT29 colon; 33.7 µM in the experiment with HCC-2998 colon; 29 µM in the experiment with CAKI-1 renal; 58.8 µM with OVCAR-8 ovarian. Further, the figures for the TGI with SK-MEL-5 melanoma and with SK-MEL-2 melanoma were 31.3 µM and 31 µM, respectively.

For `C/C(C=O)=C/[C@@]1(C)O[C@@H](C)[C@@](C)(O)[C@@H]1O`, the TGI in the experiment with MDA-MB-435, in the experiment on IGROV1 ovarian, in the experiment on UACC-257 melanoma, in the experiment on SNB-19 CNS, with MCF7 breast and in the experiment on MDA-MB-231 breast was over 100 µM throughout. For the same compound, the TGI in the experiment with U251 CNS is over 100 µM; in the experiment on M14 melanoma it was over 100 µM; in the experiment with HT29 colon, over 100 µM; in the experiment with HCC-2998 colon it was 48.2 µM; with CAKI-1 renal, 37.1 µM; in the experiment on OVCAR-8 ovarian, 40 µM. Moreover, the TGI in the experiment on SK-MEL-5 melanoma and with SK-MEL-2 melanoma was over 100 µM throughout.

`CC(=O)Nc1cccc(N2C(=O)/C(=C\c3cccc(Oc4ccccc4)c3)SC2c2ccccc2)c1` (centres undefined): the TGI in the experiment on MDA-MB-435, in the experiment with UACC-257 melanoma, in the experiment on SNB-19 CNS, in the experiment on MCF7 breast, in the experiment on MDA-MB-231 breast and in the experiment with U251 CNS was over 100 µM each time. Also, the TGI in the experiment with M14 melanoma, in the experiment on HT29 colon, with HCC-2998 colon, in the experiment with CAKI-1 renal, in the experiment on OVCAR-8 ovarian and with SK-MEL-5 melanoma was over 100 µM in each case. This compound also displayed a TGI in the experiment with SK-MEL-2 melanoma of over 100 µM.

Turning to `COC(=O)c1c(O)ccc2c1c1cc3ccccc3c(O)c1n2CCc1ccc(OC)c(OC)c1`, the TGI in the experiment on MDA-MB-435, in the experiment on IGROV1 ovarian, in the experiment on UACC-257 melanoma, in the experiment on SNB-19 CNS, in the experiment with MCF7 breast and in the experiment with MDA-MB-231 breast was over 100 µM throughout. For the same compound, the TGI with U251 CNS is over 100 µM; in the experiment on M14 melanoma, over 100 µM; in the experiment on HT29 colon it was 18.6 µM; in the experiment with HCC-2998 colon, 86.8 µM; in the experiment on CAKI-1 renal, over 100 µM; with OVCAR-8 ovarian, over 100 µM. Further, the TGI in the experiment with SK-MEL-5 melanoma and in the experiment on SK-MEL-2 melanoma was over 100 µM throughout.

As for `CC(C)CC(N)C(=O)NC(C(=O)NC(CCCNC(=N)N)C(=O)NC(CS)C(=O)NC1CSCC(C(=O)NC(Cc2ccccc2)C(=O)NC(C(=O)NC(CCCNC(=N)N)C(=O)O)C(C)C)NC(=O)C2CCCN2C(=O)C(CCCCN)NC(=O)C2CCCN2C(=O)C2CCCN2C(=O)C(Cc2ccc(O)cc2)NC(=O)C(CO)NC(=O)C(CCCCN)NC(=O)C(C(C)O)NC(=O)C(Cc2c[nH]c3ccccc23)NC1=O)C(C)C` (centres undefined), the TGI with MDA-MB-435, in the experiment on IGROV1 ovarian, in the experiment with UACC-257 melanoma, in the experiment on SNB-19 CNS, with MCF7 breast and in the experiment with MDA-MB-231 breast was over 25 µM throughout. For the same compound, the TGI with U251 CNS, in the experiment with M14 melanoma, with HT29 colon, in the experiment on CAKI-1 renal, in the experiment on OVCAR-8 ovarian and with SK-MEL-5 melanoma was over 25 µM throughout. Besides, the TGI in the experiment with SK-MEL-2 melanoma is over 25 µM.

For the compound `CCc1n[nH]c(=O)n1/N=C(\C)c1ccccc1`, the TGI with MDA-MB-435, in the experiment on IGROV1 ovarian, with UACC-257 melanoma, with SNB-19 CNS, with MCF7 breast and in the experiment with MDA-MB-231 breast was over 100 µM each time. Moreover, the TGI in the experiment on U251 CNS, with M14 melanoma, with HT29 colon, with CAKI-1 renal, in the experiment on OVCAR-8 ovarian and with SK-MEL-5 melanoma was over 100 µM each time. The compound also had a TGI in the experiment with SK-MEL-2 melanoma of over 100 µM.

Take `O=C(Nc1ccccc1)Oc1ccc(C(=S)Nc2ccc(Br)cc2)cc1`: the TGI in the experiment on MDA-MB-435 was 39.7 µM; in the experiment with IGROV1 ovarian, 28 µM; with UACC-257 melanoma it was 67.1 µM; with MCF7 breast, 60.9 µM; in the experiment with U251 CNS, 56.1 µM; in the experiment on HT29 colon, 34.7 µM. In addition, the TGI was determined as 40.8 µM in the experiment on HCC-2998 colon; 41 µM with CAKI-1 renal; 29.2 µM in the experiment on OVCAR-8 ovarian; 31.1 µM in the experiment on SK-MEL-5 melanoma; 47.8 µM with SK-MEL-2 melanoma.
